Reference: patent publication US20220213092A1, “BICYCLIC PYRAZOLE BRUTON'S TYROSINE KINASE INHIBITORS” (AbbVie Inc., priority 2020, published 2022)

What follows are compounds tested against T1, BTK (Homo sapiens, UniProt Q06187) (assay: BTK kinase electrophoretic mobility shift assay (MSA)). Conditions: not given.
T1 construct: purchased Nanosyn, Santa Clara, Calif; host or cells: 293HEK
Format: biochemical
Method: Kinase activity, unless otherwise indicated, was measured in vitro using an electrophoretic mobility shift assay (MSA). The phosphorylation of a peptide substrate by BTK and other kinases was measured. The kinase reactions were assembled in a total volume of 25 μL per well in 384 well plates. The following was added to each well: compound buffer (or control); enzyme buffer; and substrate buffer, as further described below.
The terminated reactions were analyzed using a 12 channel LABCHIP® 3000 microfluidic detection instrument (available from Caliper Life Sciences, Waltham, Mass.). […] Change in the relative fluorescence intensity of the substrate and product peaks was the parameter measured, reflecting enzyme activity. In the presence of an inhibitor, the ratio between product and substrate was altered. The signal of the product decreased, while the signal of the substrate increased. Capillary electrophoregrams (RDA acquisition files) were analyzed using HTS Well Analyzer software (available from Caliper Life Sciences, Waltham, Mass.).
Activity in each sample was determined as the product to sum ratio (PSR): P/(S+P), where P was the peak height of the product peptide and S was the peak height of the substrate peptide. For each compound, enzyme activity was measured at various concentrations (12 concentrations of compound spaced by 3× dilution intervals). Negative control samples (00 inhibition in the absence of inhibitor) and positive control samples (10000 inhibition, in the presence of 20 mM EDTA) were assembled in replicates of four and were used to calculate 00 inhibition values for each inhibitor at each concentration. Percent inhibition (Pinh) was determined using following equation: Pinh=(PSR0%−PSRinh)/(PSR0%−PSR100%)*100, where PSRinh was the product sum ratio in the presence of inhibitor, PSR0% was the average product sum ratio in the absence of inhibitor and PSR100% was the average product sum ratio in 100%−inhibition control samples.
The IC50 values of inhibitors were determined by 4 parameter sigmoidal dose response model fitting of the inhibition curves (Pinh versus inhibitor concentration) using XLfit® 4 software (available from IDBS, Boston, Mass.).

T1 sequence (Q06187 whole entry): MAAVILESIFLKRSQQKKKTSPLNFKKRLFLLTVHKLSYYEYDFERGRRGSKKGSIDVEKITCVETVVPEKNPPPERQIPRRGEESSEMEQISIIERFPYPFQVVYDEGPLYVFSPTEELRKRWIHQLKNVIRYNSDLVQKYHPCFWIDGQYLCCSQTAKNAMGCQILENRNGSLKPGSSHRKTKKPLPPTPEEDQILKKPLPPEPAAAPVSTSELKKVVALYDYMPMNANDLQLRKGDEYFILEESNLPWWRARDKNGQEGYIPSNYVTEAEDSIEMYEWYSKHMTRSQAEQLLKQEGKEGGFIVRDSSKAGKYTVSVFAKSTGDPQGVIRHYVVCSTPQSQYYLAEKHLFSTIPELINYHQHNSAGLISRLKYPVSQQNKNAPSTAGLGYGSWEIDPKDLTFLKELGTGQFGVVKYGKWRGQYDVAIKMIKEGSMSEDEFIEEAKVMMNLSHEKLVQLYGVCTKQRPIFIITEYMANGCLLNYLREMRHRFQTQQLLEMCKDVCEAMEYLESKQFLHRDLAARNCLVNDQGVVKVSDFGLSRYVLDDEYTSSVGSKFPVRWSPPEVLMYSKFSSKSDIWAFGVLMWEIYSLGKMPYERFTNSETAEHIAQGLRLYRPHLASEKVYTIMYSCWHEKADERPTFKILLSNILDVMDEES

Row | SMILES | IC50
1 | NC(=O)c1c2c(nn1-c1ccc(Oc3ccccc3)cc1)C(N1CCN(C(=O)CF)CC1)CCN2 (stereo not drawn) [Example 49, 7-[4-(fluoroacetyl)piperazin-1-yl]-2-(4-phenoxyphenyl)-4,5,6,7-tetrahydro-2H-pyrazolo[4,3-b]pyridine-3-carboxamide] | 0.398 µM

Same assay, conditions: 50 μM ATP, 0.5 nM BTK enzyme (Nanosyn-293HEK, WT), 3 hours at 25° C.; all examples except 50, 51, 62 and 63; read-out: BTK IC50

Row | SMILES | IC50
2 | C=CC(=O)N1C[C@H](C)N(C2CCNc3c2nn(-c2ccc(Oc4ccccc4)cc2)c3C(N)=O)C[C@H]1C (stereo partly drawn) [Example 18, 7-[(2S,5R)-2,5-dimethyl-4-(prop-2-enoyl)piperazin-1-yl]-2-(4-phenoxyphenyl)-4,5,6,7-tetrahydro-2H-pyrazolo[4,3-b]pyridine-3-carboxamide] | 0.678 µM
3 | CC#CC(=O)N1CCC(N2CCNc3c2nn(-c2ccc(Oc4ccccc4)cc2)c3C(N)=O)CC1 [Example 19, 7-[1-(but-2-ynoyl)piperidin-4-yl]-2-(4-phenoxyphenyl)-4,5,6,7-tetrahydro-2H-pyrazolo[3,4-b]pyrazine-3-carboxamide] | 0.00861 µM
4 | C=CC(=O)N1C[C@@H](C)N(C2CCNc3c2nn(-c2ccc(Oc4ccccc4)cc2)c3C(N)=O)C[C@@H]1C (stereo partly drawn) [Example 21, 7-[(2R,5S)-2,5-dimethyl-4-(prop-2-enoyl)piperazin-1-yl]-2-(4-phenoxyphenyl)-4,5,6,7-tetrahydro-2H-pyrazolo[4,3-b]pyridine-3-carboxamide] | 0.919 µM
5 | C=CC(=O)N1CCC(C2CCNc3c2nn(-c2ccc(Oc4cccc(C(F)(F)F)c4)cc2)c3C(N)=O)CC1 (stereo not drawn) [Example 23, 7-[1-(prop-2-enoyl)piperidin-4-yl]-2-{4-[3-(trifluoromethyl)phenoxy]phenyl}-4,5,6,7-tetrahydro-2H-pyrazolo[4,3-b]pyridine-3-carboxamide] | 0.00203 µM
6 | C=CC(=O)N1CCN(C2CCNc3c2nn(-c2ccc(Oc4ccccc4)cc2)c3C(N)=O)CC12CCC2 (stereo not drawn) [Example 26, 2-(4-phenoxyphenyl)-7-[5-(prop-2-enoyl)-5,8-diazaspiro[3.5]nonan-8-yl]-4,5,6,7-tetrahydro-2H-pyrazolo[4,3-b]pyridine-3-carboxamide] | 0.00216 µM
7 | C=CC(=O)N1CCC(C2CCNc3c2nn(-c2ccc(Oc4ccc(Cl)cc4)cc2)c3C(N)=O)CC1 (stereo not drawn) [Example 28, 2-[4-(4-chlorophenoxy)phenyl]-7-[1-(prop-2-enoyl)piperidin-4-yl]-4,5,6,7-tetrahydro-2H-pyrazolo[4,3-b]pyridine-3-carboxamide] | 0.00466 µM
8 | C=CC(=O)N1C[C@H]2C[C@@H]1CN2C1CCNc2c1nn(-c1ccc(Oc3ccccc3)cc1)c2C(N)=O (stereo partly drawn) [Example 33, 2-(4-phenoxyphenyl)-7-[(1R,4R)-5-(prop-2-enoyl)-2,5-diazabicyclo[2.2.1]heptan-2-yl]-4,5,6,7-tetrahydro-2H-pyrazolo[4,3-b]pyridine-3-carboxamide] | 0.0248 µM
9 | C=CC(=O)N1CCN(C2CCNc3c2nn(-c2ccc(Oc4ccc(F)cc4F)cc2)c3C(N)=O)CC1 (stereo not drawn) [Example 36, 2-[4-(2,4-difluorophenoxy)phenyl]-7-[4-(prop-2-enoyl)piperazin-1-yl]-4,5,6,7-tetrahydro-2H-pyrazolo[4,3-b]pyridine-3-carboxamide] | 0.0142 µM
10 | C=CC(=O)N1CCC(C2CCNc3c2nn(-c2ccc(Oc4ccccc4)cc2F)c3C(N)=O)CC1 (stereo not drawn) [Example 37, 2-(2-fluoro-4-phenoxyphenyl)-7-[1-(prop-2-enoyl)piperidin-4-yl]-4,5,6,7-tetrahydro-2H-pyrazolo[4,3-b]pyridine-3-carboxamide] | 0.00248 µM
11 | C=CC(=O)N1CCN(C2CCNc3c2nn(-c2ccc(Oc4ccccc4F)cc2)c3C(N)=O)CC1 (stereo not drawn) [Example 38, 2-[4-(2-fluorophenoxy)phenyl]-7-[4-(prop-2-enoyl)piperazin-1-yl]-4,5,6,7-tetrahydro-2H-pyrazolo[4,3-b]pyridine-3-carboxamide] | 0.00358 µM
12 | CN(C)C/C=C/C(=O)N1CCN([C@@H]2CCNc3c2nn(-c2ccc(Oc4ccccc4)cc2)c3C(N)=O)CC1 [Example 46, (7R)-7-{4-[(2E)-4-(dimethylamino)but-2-enoyl]piperazin-1-yl}-2-(4-phenoxyphenyl)-4,5,6,7-tetrahydro-2H-pyrazolo[4,3-b]pyridine-3-carboxamide] | 0.0767 µM
13 | NC(=O)/C=C/C(=O)N1CCN([C@@H]2CCNc3c2nn(-c2ccc(Oc4ccccc4)cc2)c3C(N)=O)CC1 [Example 48, (7R)-7-{4-[(2E)-4-amino-4-oxobut-2-enoyl]piperazin-1-yl}-2-(4-phenoxyphenyl)-4,5,6,7-tetrahydro-2H-pyrazolo[4,3-b]pyridine-3-carboxamide] | 0.0511 µM

More lines, now with the values ahead:

Row | IC50 | SMILES
14 | 0.819 µM | C/C=C/C(=O)N1CCN([C@@H]2CCNc3c2nn(-c2ccc(Oc4ccccc4)cc2)c3C(N)=O)CC1 [Example 47, (7R)-7-{4-[(2E)-but-2-enoyl]piperazin-1-yl}-2-(4-phenoxyphenyl)-4,5,6,7-tetrahydro-2H-pyrazolo[4,3-b]pyridine-3-carboxamide]
15 | 0.126 µM | CC#CC(=O)N1CCN(C2CCNc3c2nn(-c2ccc(Oc4ccccc4)cc2)c3C(N)=O)CC1 (stereo not drawn) [Example 27, 7-[4-(but-2-ynoyl)piperazin-1-yl]-2-(4-phenoxyphenyl)-4,5,6,7-tetrahydro-2H-pyrazolo[4,3-b]pyridine-3-carboxamide]
16 | 0.0294 µM | C=CC(=O)N1CCCN(C2CCNc3c2nn(-c2ccc(Oc4ccccc4)cc2)c3C(N)=O)CC1 (stereo not drawn) [Example 25, trifluoroacetic acid-2-(4-phenoxyphenyl)-7-[4-(prop-2-enoyl)-1,4-diazepan-1-yl]-4,5,6,7-tetrahydro-2H-pyrazolo[4,3-b]pyridine-3-carboxamide (1/1)]
17 | 0.0242 µM | C=CC(=O)N1CCC([C@@H]2CCNc3c2nn(-c2ccc(Oc4ccc(F)cc4F)cc2)c3C(N)=O)CC1 [Example 29, (7S)-2-[4-(2,4-difluorophenoxy)phenyl]-7-[1-(prop-2-enoyl)piperidin-4-yl]-4,5,6,7-tetrahydro-2H-pyrazolo[4,3-b]pyridine-3-carboxamide]
18 | 0.0158 µM | C=CC(=O)N1CC2CC(C1)N2C1CCNc2c1nn(-c1ccc(Oc3ccccc3)cc1)c2C(N)=O (stereo not drawn) [Example 41, 2-(4-phenoxyphenyl)-7-[3-(prop-2-enoyl)-3,6-diazabicyclo[3.1.1]heptan-6-yl]-4,5,6,7-tetrahydro-2H-pyrazolo[4,3-b]pyridine-3-carboxamide]
19 | 0.0125 µM | C=CC(=O)N1C[C@@H]2C[C@H]1CN2C1CCNc2c1nn(-c1ccc(Oc3ccccc3)cc1)c2C(N)=O (stereo partly drawn) [Example 34, 2-(4-phenoxyphenyl)-7-[(1S,4S)-5-(prop-2-enoyl)-2,5-diazabicyclo[2.2.1]heptan-2-yl]-4,5,6,7-tetrahydro-2H-pyrazolo[4,3-b]pyridine-3-carboxamide]
20 | 0.0118 µM | C=CC(=O)N1CCN(C2CCNc3c2nn(-c2ccc(Oc4ccccc4)cc2)c3C(N)=O)C[C@H]1C (stereo partly drawn) [Example 42, 7-[(3R)-3-methyl-4-(prop-2-enoyl)piperazin-1-yl]-2-(4-phenoxyphenyl)-4,5,6,7-tetrahydro-2H-pyrazolo[4,3-b]pyridine-3-carboxamide]
21 | 0.00317 µM | C=CC(=O)N1CCN(C2CCNc3c2nn(-c2ccc(Oc4ccccc4)cc2)c3C(N)=O)C[C@H]1C(C)C (stereo partly drawn) [Example 20, 2-(4-phenoxyphenyl)-7-[(3R)-3-(propan-2-yl)-4-(prop-2-enoyl)piperazin-1-yl]-4,5,6,7-tetrahydro-2H-pyrazolo[4,3-b]pyridine-3-carboxamide]
